Drawing on patent publication US20240246946A1, “MODULATORS OF TREX1” (Constellation Pharmaceuticals, Inc., priority 2021, published 2024), this text covers IC50 for 33 compounds.

The target in one test is T1, full length human TREX1 (Homo sapiens, UniProt Q9NSU2).
T1 construct: N-terminally His-Tev tagged full length human TREX1; made in house; host or cells: E. coli
T1 sequence (Q9NSU2 1-314): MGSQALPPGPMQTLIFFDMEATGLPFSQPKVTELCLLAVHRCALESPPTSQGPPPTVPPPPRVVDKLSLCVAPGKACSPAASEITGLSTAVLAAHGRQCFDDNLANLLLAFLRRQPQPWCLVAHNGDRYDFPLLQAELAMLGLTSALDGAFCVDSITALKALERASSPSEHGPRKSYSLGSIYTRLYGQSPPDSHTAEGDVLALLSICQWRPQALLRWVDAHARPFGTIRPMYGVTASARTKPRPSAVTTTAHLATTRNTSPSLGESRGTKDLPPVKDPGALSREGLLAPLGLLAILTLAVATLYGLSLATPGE
The test can be described thus: hTREX1 Biochemical Assay (fluorescence, dsDNA substrate degradation). To be noted: biochemical, read-out: hTREX1 IC50. The protocol:
(§1) Degradation of the dsDNA liberates free fluorophore to produce a fluorescent signal. Specifically, 7.5 μL of N-terminally His-Tev tagged full length human TREX1 (expressed in E. coli and purified in house) in reaction buffer (50 mM Tris, 150 mM NaCl, 2 mM DTT, 0.1 mg/mL BSA, 0.01% (w/v) Tween-20, 5 mM MgCl2, pH 7.4) was added to a 384-well Black ProxiPlate Plus (PerkinElmer) which already contained compound (150 nL) at varying concentrations as a 10 point dose-response in DMSO. The plate was incubated at 25° C. for 4 hours. Reactions were initiated by adding 7.5 μL of dsDNA substrate (Strand A: 5′ TEX615/GCT AGG CAG 3′; Strand B: 5′ CTG CCT AGC/IAbRQSp (Integrated DNA Technologies)) in reaction buffer. Final concentrations were 4 pM TREX1, 60 nM dsDNA substrate in reaction buffer with 1.0% DMSO (v/v). After 18 hours at 25° C., reactions were quenched by the addition of 2 μL of 500 mM EDTA.

A further test has as its target T2, full length mouse TREX1 (Mus musculus, UniProt Q91XB0).
T2 construct: N-terminally His-Tev tagged full length mouse TREX1; made in house; host or cells: E. coli
T2 sequence (Q91XB0 1-314): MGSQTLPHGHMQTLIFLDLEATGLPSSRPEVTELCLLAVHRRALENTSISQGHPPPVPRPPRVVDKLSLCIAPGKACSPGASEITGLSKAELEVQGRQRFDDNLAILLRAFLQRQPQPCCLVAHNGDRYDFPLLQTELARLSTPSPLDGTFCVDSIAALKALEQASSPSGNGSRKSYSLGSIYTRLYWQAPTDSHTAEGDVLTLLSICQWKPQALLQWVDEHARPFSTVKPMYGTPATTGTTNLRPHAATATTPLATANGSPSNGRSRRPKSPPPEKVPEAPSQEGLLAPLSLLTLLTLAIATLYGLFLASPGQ
The test can be described thus: mTREX1 Biochemical Assay (fluorescence, dsDNA substrate degradation). Conditions: biochemical, read-out: mTREX1 IC50. The protocol: as §1, with “length mouse” for “length human”, “were 6” for “were 4”

One may read the IC50 as the concentration at which inhibition is half-maximal. With `Cc1ncc(C(c2ccccc2C#N)C(C)c2nc(C(=O)Nc3cnoc3)c(O)c(=O)n2C)cn1` (single isomer, unassigned) [Example 67 D2E2], at full length human TREX1, the IC50 is more than 10 nM. For the compound `Cc1nc(C)c(C(c2ccccc2C#N)C(C)c2nc(C(=O)Nc3cnoc3)c(O)c(=O)n2C)nc1C` (single isomer, unassigned) [Example 122 D2E2], the IC50 at full length mouse TREX1 and at full length human TREX1 was more than 10 nM throughout. For `[2H]C([2H])([2H])n1cc(C(c2ccccc2C#N)C(C)c2nc(C(=O)Nc3cnoc3)c(O)c(=O)n2C)cn1` (single isomer, unassigned) [Example 76 D1E1], on full length human TREX1, the IC50 is less than 1 nM.

Regarding `CC(c1nc(C(=O)Nc2cnoc2)c(O)c(=O)n1C)C(c1cnn(C)c1)c1ccc(F)cc1Cl` (single isomer, unassigned) [Example 74 D2E1], on full length human TREX1, the IC50 is more than 10 nM. In the case of `CC(c1nc(C(=O)Nc2cnoc2)c(O)c(=O)n1C)C(c1cnn(C)c1)c1cc(F)c(F)cc1C#N` (single isomer, unassigned) [Example 25 D2E2], the IC50 at full length mouse TREX1 and at full length human TREX1 was more than 10 nM each time. In the case of `Cc1cncc(C(c2ccccc2C#N)C(C)c2nc(C(=O)Nc3cnoc3)c(O)c(=O)n2C)n1` (single isomer, unassigned) [Example 53 D2E1], the IC50 at full length mouse TREX1 and on full length human TREX1 was more than 10 nM each time. Turning to `CC(c1nc(C(=O)Nc2cnoc2)c(O)c(=O)n1C)C(c1cnn(C)c1)c1ccc(F)cc1Cl` (single isomer, unassigned) [Example 74 D1E2], the IC50 at full length human TREX1 is more than 10 nM. In the case of `COCCn1cc(C(c2cc(F)ccc2C#N)C(C)c2nc(C(=O)Nc3cnoc3)c(O)c(=O)n2C)cn1` (single isomer, unassigned) [Example 18 D2E1], the IC50 on full length mouse TREX1 and on full length human TREX1 was more than 10 nM in each case. On to `CC(c1nc(C(=O)Nc2cnoc2)c(O)c(=O)n1C)C(c1cnn(CCN2CCN(C)CC2)c1)c1ccccc1C#N` (single isomer, unassigned) [Example 32 D1E2], for which the figures for the IC50 on full length mouse TREX1 and on full length human TREX1 were more than 10 nM and 1 to 10 nM, respectively. Consider `CC(c1nc(C(=O)Nc2cnoc2)c(O)c(=O)n1C)C(c1cnn(CCN(C)C)c1)c1ccccc1C#N` (single isomer, unassigned) [Example 33 D1E2], for which the IC50 at full length mouse TREX1 and at full length human TREX1 was more than 10 nM throughout. In the case of `CCn1ncc(C(c2ccccc2C#N)C(C)c2nc(C(=O)Nc3cnoc3)c(O)c(=O)n2C)c1C` (single isomer, unassigned) [Example 68 D1E2], the IC50 on full length mouse TREX1 and on full length human TREX1 was more than 10 nM each time.

With `Cc1c(C(c2ccccc2C#N)C(C)c2nc(C(=O)Nc3cnoc3)c(O)c(=O)n2C)cnn1C` (single isomer, unassigned) [Example 4 D2E1], the IC50 at full length mouse TREX1 and on full length human TREX1 was more than 10 nM throughout. In the case of `Cn1cc(C(c2ccccc2C#N)C(c2nc(C(=O)Nc3cnoc3)c(O)c(=O)n2C)C(F)(F)F)cn1` (single isomer, unassigned) [Example 40 D1E1], the IC50 on full length mouse TREX1 and at full length human TREX1 was more than 10 nM each time. For the compound `Cc1cc(C(c2cc(F)ccc2Cl)C(C)c2nc(C(=O)Nc3cnoc3)c(O)c(=O)n2C)n(C)n1` (single isomer, unassigned) [Example 113 D2E2], the IC50 at full length mouse TREX1 and on full length human TREX1 was more than 10 nM throughout. With `CC(c1nc(C(=O)Nc2cnoc2)c(O)c(=O)n1C)C(c1cnn(CCCN(C)C)c1)c1ccccc1C#N` (single isomer, unassigned) [Example 34 D2E2], the IC50 at full length mouse TREX1 and at full length human TREX1 was more than 10 nM throughout. On to `CC(c1nc(C(=O)Nc2cnoc2)c(O)c(=O)n1C)C(c1ncn(C)n1)c1ccccc1C#N` (single isomer, unassigned) [Example 51 D2E2], for which the IC50 at full length mouse TREX1 and at full length human TREX1 was more than 10 nM throughout. With `Cn1cc(C(c2ccccc2C#N)C(c2nc(C(=O)Nc3cnoc3)c(O)c(=O)n2C)C(F)(F)F)cn1` (single isomer, unassigned) [Example 40 D2E1], the IC50 on full length mouse TREX1 and on full length human TREX1 was more than 10 nM throughout.

Take `Cc1nn(C)cc1C(c1ccccc1C#N)C(C)c1nc(C(=O)Nc2cnoc2)c(O)c(=O)n1C` (single isomer, unassigned) [Example 3 D2E1]: the IC50 at full length mouse TREX1 and on full length human TREX1 was more than 10 nM in each case. Take `CCn1ncc(C(c2ccc(F)cc2C#N)C(C)c2nc(C(=O)Nc3cnoc3)c(O)c(=O)n2C)c1C` (single isomer, unassigned) [Example 65 D1E2]: the half-maximal inhibitory concentration (IC50) on full length mouse TREX1 and on full length human TREX1 was more than 10 nM throughout. For the compound `CC(c1nc(C(=O)Nc2cnoc2)c(O)c(=O)n1C)C(c1cnn(CCN(C)C)c1)c1ccccc1C#N` (single isomer, unassigned) [Example 33 D2E1], the IC50 on full length mouse TREX1 and at full length human TREX1 was more than 10 nM throughout. Consider `CCn1ncc(C(c2ccccc2C#N)C(C)c2nc(C(=O)Nc3cnoc3)c(O)c(=O)n2C)c1C` (single isomer, unassigned) [Example 68 D2E2], for which the IC50 at full length mouse TREX1 and at full length human TREX1 was more than 10 nM in each case.

As for `CC(c1nc(C(=O)Nc2cnoc2)c(O)c(=O)n1C)C(c1cnn(C)c1)c1cccnc1C#N` (single isomer, unassigned) [Example 7 D2E1], the IC50 on full length mouse TREX1 and on full length human TREX1 was more than 10 nM each time. As for `Cc1cn(C)nc1C(c1ccccc1C#N)C(C)c1nc(C(=O)Nc2cnoc2)c(O)c(=O)n1C` (single isomer, unassigned) [Example 64 D1E1], the IC50 on full length mouse TREX1 was more than 10 nM; at full length human TREX1 it was less than 1 nM. The matching figures for `CC(c1nc(C(=O)Nc2cnoc2)c(O)c(=O)n1C)C(c1cnn(C(F)(F)F)c1)c1ccccc1C#N` (single isomer, unassigned) [Example 151 D2E2]: more than 10 nM and more than 10 nM. As for `Cc1cncc(C(c2ccccc2C#N)C(C)c2nc(C(=O)Nc3cnoc3)c(O)c(=O)n2C)n1` (single isomer, unassigned) [Example 53 D2E2], the IC50 on full length mouse TREX1 and at full length human TREX1 was more than 10 nM in each case.

Turning to `Cc1ncc(C(c2ccccc2C#N)C(C)c2nc(C(=O)Nc3cnoc3)c(O)c(=O)n2C)cn1` (single isomer, unassigned) [Example 67 D2E1], the IC50 at full length human TREX1 is more than 10 nM.

Consider `CCn1cc(C(c2ccc(F)cc2C#N)C(C)c2nc(C(=O)Nc3cnoc3)c(O)c(=O)n2C)c(C)n1` (single isomer, unassigned) [Example 55 D2E1], for which, on full length human TREX1, the IC50 is more than 10 nM. Same read-out and setting: next, `Cc1ncc(C(c2ccccc2C#N)C(C)c2nc(C(=O)Nc3cnoc3)c(O)c(=O)n2C)cn1` (single isomer, unassigned) [Example 67 D1E1]: more than 10 nM; `Cc1cnn(C(c2ccccc2C#N)C(C)c2nc(C(=O)Nc3cnoc3)c(O)c(=O)n2C)c1` (single isomer, unassigned) [Example 47 D1E1]: less than 1 nM; `COC(C)(C)Cn1cc(C(c2ccccc2C#N)C(C)c2nc(C(=O)Nc3cnoc3)c(O)c(=O)n2C)cn1` (single isomer, unassigned) [Example 37 D2E2]: more than 10 nM. As for `Cc1cnn(C(c2ccccc2C#N)C(C)c2nc(C(=O)Nc3cnoc3)c(O)c(=O)n2C)c1` (single isomer, unassigned) [Example 47 D1E2], at full length human TREX1, the IC50 is more than 10 nM.

For `CC(c1nc(C(=O)Nc2cnoc2)c(O)c(=O)n1C)C(c1cnn(C)c1)c1ccc(F)cc1Cl` (single isomer, unassigned) [Example 74 D1E1], on full length human TREX1, the IC50 is less than 1 nM. Same read-out and setting: to `CC(c1nc(C(=O)Nc2cnoc2)c(O)c(=O)n1C)C(c1cnn(C)c1)c1ccc(F)cc1Cl` (single isomer, unassigned) [Example 74 D2E2] belongs more than 10 nM.
